Assay results: EP0942911B1, “BENZOPYRANOPYRROLE AND BENZOPYRANOPYRIDINE ALPHA-1 ADRENERGIC COMPOUNDS” (Abbott Laboratories, priority 1996, dated 1998)
Counter-ions that a name gives are not always drawn. Like-named read-outs stand apart in the source and are kept apart here.

Experiments:
Test in all cases: biochemical
[1] = target: T1, α-1b adrenoreceptor (Mesocricetus auratus, UniProt P18841); assay type: binding, hamster; conditions: read-out: Radioligand Binding (Ki, nM) 1b (Hamster)
T1 sequence (P18841 1-515): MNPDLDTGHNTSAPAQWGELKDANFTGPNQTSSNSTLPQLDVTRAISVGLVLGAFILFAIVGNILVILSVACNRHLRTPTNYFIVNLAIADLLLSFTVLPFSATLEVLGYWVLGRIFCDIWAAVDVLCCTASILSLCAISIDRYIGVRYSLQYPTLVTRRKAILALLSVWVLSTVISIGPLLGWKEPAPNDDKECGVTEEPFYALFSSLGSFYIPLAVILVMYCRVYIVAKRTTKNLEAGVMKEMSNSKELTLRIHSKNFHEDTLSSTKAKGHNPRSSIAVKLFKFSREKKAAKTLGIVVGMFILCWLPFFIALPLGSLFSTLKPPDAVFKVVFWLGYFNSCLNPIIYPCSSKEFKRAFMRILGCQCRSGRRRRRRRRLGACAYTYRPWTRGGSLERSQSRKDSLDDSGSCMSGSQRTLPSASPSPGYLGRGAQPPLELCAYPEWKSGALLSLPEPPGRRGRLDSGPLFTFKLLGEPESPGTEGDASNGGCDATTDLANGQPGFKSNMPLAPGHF
Procedure, shortened: (§1)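 Stable LTK fibroblast lines carrying the bovine, hamster or rat α-1 subtype genes supply membranes, homogenized in Tris-HCl/EDTA at pH 7.4. A separate rat submaxillary gland preparation covers α-1A. Bound radioligand is quantified by liquid scintillation.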

[2] = target: T2, α-1a adrenoreceptor (Bos taurus, UniProt P18130); assay type: binding, bovine; conditions: read-out: Radioligand Binding (Ki, nM) 1a (Bovine)
T2 sequence (P18130 1-466): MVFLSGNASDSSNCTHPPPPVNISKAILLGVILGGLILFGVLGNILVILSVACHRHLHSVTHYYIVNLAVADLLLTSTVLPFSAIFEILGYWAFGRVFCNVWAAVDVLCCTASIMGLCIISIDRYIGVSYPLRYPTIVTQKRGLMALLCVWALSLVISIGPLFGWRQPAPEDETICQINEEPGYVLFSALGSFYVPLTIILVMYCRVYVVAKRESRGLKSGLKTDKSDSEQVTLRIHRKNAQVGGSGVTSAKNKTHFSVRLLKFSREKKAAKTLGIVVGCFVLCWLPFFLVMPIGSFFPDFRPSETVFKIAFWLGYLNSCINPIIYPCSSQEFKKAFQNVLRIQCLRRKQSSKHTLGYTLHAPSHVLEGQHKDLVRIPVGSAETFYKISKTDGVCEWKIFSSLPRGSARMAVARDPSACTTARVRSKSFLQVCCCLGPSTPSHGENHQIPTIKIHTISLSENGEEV
Procedure, shortened: as §1

[3] = target: T3, α-1A adrenoreceptor (rat submaxillary gland) (Rattus norvegicus, UniProt P43140); assay type: binding; conditions: read-out: Radioligand Binding (Ki, nM) 1A (Rat)
T3 sequence (P43140 1-466): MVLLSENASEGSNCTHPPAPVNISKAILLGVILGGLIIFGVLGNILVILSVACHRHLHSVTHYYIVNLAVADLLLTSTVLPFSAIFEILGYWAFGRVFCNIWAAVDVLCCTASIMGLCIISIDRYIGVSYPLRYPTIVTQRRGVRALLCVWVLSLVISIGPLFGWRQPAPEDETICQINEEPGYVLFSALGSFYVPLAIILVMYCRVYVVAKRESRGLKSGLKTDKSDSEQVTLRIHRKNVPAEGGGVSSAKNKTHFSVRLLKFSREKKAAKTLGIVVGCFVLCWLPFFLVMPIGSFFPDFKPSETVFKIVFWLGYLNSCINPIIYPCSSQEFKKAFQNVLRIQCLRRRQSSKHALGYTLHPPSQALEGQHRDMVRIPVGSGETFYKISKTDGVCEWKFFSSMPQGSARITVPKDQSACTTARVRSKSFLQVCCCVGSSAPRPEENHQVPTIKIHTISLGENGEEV
Procedure, shortened: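 Membranes were prepared from rat submaxillary glands as the α-1A adrenoreceptor source. Competition binding followed Greengrass and Bremner, with bound radioligand measured by scintillation counting.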

[4] = [3H]-prazosin radioligand, cloned receptor in LTK cell membranes
[5] = [3H]-prazosin radioligand, rat submaxillary gland membranes

COc1cccc2c1[C@@H]1CN(CCCCn3c(=O)[nH]c4c(sc5ncc(Cl)nc54)c3=O)C[C@H]1CO2 [Example 13, 3-[4-((3aS,9bR)-trans-9-Methoxy-1,2,3,3a,4,9b-hexahydro-[1]-benzopyrano[3,4-c]pyrrol-2-yl)butyl]-8-chloro-pyrazino[2',3':4,5]thieno[3,2-d]pyrimidine-2,4(1H,3H)-dione hydrochloride]
Ki [1, 4]: 2.49 nM
Ki [2, 4]: 0.041 nM
Ki [3, 5]: 0.1 nM

Cl.O=c1[nH]c2c(sc3ccccc32)c(=O)n1CCN1C[C@@H]2COc3ccccc3[C@@H]2C1 (racemic) [Example 69, 3-[2-((±)-cis-1,2,3,3a,4,9b-hexahydro-[1]-benzopyrano[3,4-c]pyrrol-2-yl)ethyl]-[1]benzthieno[3,2-d]pyrimidine-2,4(1H,3H)-dione hydrochloride]
Ki [1]: 4.35 nM
Ki [2]: 0.344 nM
Ki [3]: 0.665 nM

COc1cccc2c1[C@@H]1CN(CCCCn3c(=O)[nH]c4c(sc5cc(Cl)cnc54)c3=O)C[C@@H]1CO2 [Example 38, 3-[4-((3aR,9bR)-cis-9-Methoxy-1,2,3,3a,4,9b-hexahydro-[1]-benzopyrano[3,4-c]pyrrol-2-yl)butyl]-7-chloro-pyrido[2',3':4,5]thieno[3,2-d]pyrimidine-2,4(1H,3H)-dione hydrochloride]
Ki [1, 4]: 5.63 nM
Ki [2, 4]: 0.057 nM
Ki [3, 5]: 0.376 nM

COc1cnc2sc3c(=O)n(CCCCN4C[C@@H]5COc6cccc(OC)c6[C@@H]5C4)c(=O)[nH]c3c2n1 [Example 31, 3-[4-((3aR,9bR)-cis-9-Methoxy-1,2,3,3a,4,9b-hexahydro-[1]-benzopyrano[3,4-c]pyrrol-2-yl)butyl]-8-methoxy-pyrazino[2',3':4,5]thieno[3,2-d]pyrimidine-2,4(1H,3H)-dione hydrochloride]
Ki [1, 4]: 4.79 nM
Ki [2, 4]: 0.06 nM
Ki [3, 5]: 0.224 nM

COc1cccc2c1[C@@H]1CN(CCCn3c(=O)[nH]c4c(sc5ccccc54)c3=O)C[C@@H]1CO2.Cl (racemic) [Example 66, 3-[3-((±)-cis-9-Methoxy-1,2,3,3a,4,9b-hexahydro-[1]-benzopyrano[3,4-c]pyrrol-2-yl)propyl]-[1]benzthieno[3,2-d]pyrimidine-2,4(1H,3H)-dione hydrochloride]
Ki [1]: 533 nM
Ki [2]: 24.8 nM
Ki [3]: 214 nM

COc1cccc2c1[C@@H]1CN(CCCCn3c(=O)[nH]c4c(sc5ncc(-c6ccccc6)nc54)c3=O)C[C@H]1CO2 [Example 50, 3-[4-((3aS,9bR)-trans-9-Methoxy-1,2,3,3a,4,9b-hexahydro-[1]-benzopyrano[3,4-c]pyrrol-2-yl)butyl]-8-phenyl-pyrazino[2',3':4,5]thieno[3,2-d]pyrimidine-2,4(1H,3H)-dione hydrochloride]
Ki [1, 4]: 20.8 nM
Ki [2, 4]: 0.335 nM
Ki [3, 5]: 1.93 nM
